{"source": "patent US8952024B2", "about": "“Herbicidal pyrimidone derivatives” (E I du Pont de Nemours and Company, priority 2009, dated 2015)"}
{"system": "barnyardgrass (Echinochloa crus-galli)", "experiment": "Test A pre-/postemergence plant response", "format": "in vivo", "conditions": "Postemergence, 125 g ai/ha; 0 to 100 scale where 0 is no effect and 100 is complete control", "how_it_was_run": "(§1)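 Pre: directed soil spray on seeded loam/sand blend. Post: same formulation (non-phytotoxic solvent + surfactant) on 2–10 cm plants, 1–2 leaf stage. Greenhouse ~10 d; visual injury score 0–100 vs untreated.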"}
{"molecule": "Cc1ccccc1-c1ncc(C(=O)C2=C(O)CCCC2=O)c(=O)n1-c1ccccc1", "note": "[Compound 82]", "Plant response rating, Barnyardgrass": 10}
{"system": "barnyardgrass (Echinochloa crus-galli)", "experiment": "Test A pre-/postemergence plant response", "format": "in vivo", "conditions": "Postemergence, 500 g ai/ha; 0 to 100 scale, 0 = no effect, 100 = complete control; approx. ten days", "how_it_was_run": "as §1"}
{"molecule": "Cc1ccccc1-c1ncc(C(=O)C2=C(O)CCCC2=O)c(=O)n1-c1ccccc1", "note": "[Compound 82]", "Plant response rating, Barnyardgrass": 70}
{"system": "barnyardgrass (Echinochloa crus-galli)", "experiment": "Test A pre-/postemergence plant response", "format": "in vivo", "conditions": "Preemergence, 125 g ai/ha; 0 to 100 scale, 0 = no effect, 100 = complete control", "how_it_was_run": "as §1"}
{"molecule": "Cc1ccccc1-c1ncc(C(=O)C2=C(O)CCCC2=O)c(=O)n1-c1ccccc1", "note": "[Compound 82]", "Plant response rating, Barnyardgrass": 0}
{"system": "barnyardgrass (Echinochloa crus-galli)", "experiment": "Test A pre-/postemergence plant response", "format": "in vivo", "conditions": "Preemergence, 500 g ai/ha; visual injury, 0 to 100 scale (0 no effect, 100 complete control), approx. ten days", "how_it_was_run": "as §1"}
{"molecule": "Cc1ccccc1-c1ncc(C(=O)C2=C(O)CCCC2=O)c(=O)n1-c1ccccc1", "note": "[Compound 82]", "Plant response rating, Barnyardgrass": 10}
{"system": "corn (Zea mays)", "experiment": "Test A pre-/postemergence plant response", "format": "in vivo", "conditions": "Postemergence, 125 g ai/ha; 0 to 100 scale where 0 is no effect and 100 is complete control", "how_it_was_run": "as §1"}
{"molecule": "Cc1ccccc1-c1ncc(C(=O)C2=C(O)CCCC2=O)c(=O)n1-c1ccccc1", "note": "[Compound 82]", "Plant response rating, Corn": 0}
{"system": "corn (Zea mays)", "experiment": "Test A pre-/postemergence plant response", "format": "in vivo", "conditions": "Postemergence, 500 g ai/ha; 0 to 100 scale, 0 = no effect, 100 = complete control; approx. ten days", "how_it_was_run": "as §1"}
{"molecule": "Cc1ccccc1-c1ncc(C(=O)C2=C(O)CCCC2=O)c(=O)n1-c1ccccc1", "note": "[Compound 82]", "Plant response rating, Corn": 20}
{"system": "corn (Zea mays)", "experiment": "Test A pre-/postemergence plant response", "format": "in vivo", "conditions": "Preemergence, 125 g ai/ha; 0 to 100 scale, 0 = no effect, 100 = complete control", "how_it_was_run": "as §1"}
{"molecule": "Cc1ccccc1-c1ncc(C(=O)C2=C(O)CCCC2=O)c(=O)n1-c1ccccc1", "note": "[Compound 82]", "Plant response rating, Corn": 0}
{"system": "corn (Zea mays)", "experiment": "Test A pre-/postemergence plant response", "format": "in vivo", "conditions": "Preemergence, 500 g ai/ha; visual injury, 0 to 100 scale (0 no effect, 100 complete control), approx. ten days", "how_it_was_run": "as §1"}
{"molecule": "Cc1ccccc1-c1ncc(C(=O)C2=C(O)CCCC2=O)c(=O)n1-c1ccccc1", "note": "[Compound 82]", "Plant response rating, Corn": 0}
{"system": "giant foxtail (Setaria faberii)", "experiment": "Test A pre-/postemergence plant response", "format": "in vivo", "conditions": "Postemergence, 125 g ai/ha; 0 to 100 scale where 0 is no effect and 100 is complete control", "how_it_was_run": "as §1"}
{"molecule": "Cc1ccccc1-c1ncc(C(=O)C2=C(O)CCCC2=O)c(=O)n1-c1ccccc1", "note": "[Compound 82]", "Plant response rating, Foxtail, Giant": 10}
{"system": "giant foxtail (Setaria faberii)", "experiment": "Test A pre-/postemergence plant response", "format": "in vivo", "conditions": "Postemergence, 500 g ai/ha; 0 to 100 scale, 0 = no effect, 100 = complete control; approx. ten days", "how_it_was_run": "as §1"}
{"molecule": "Cc1ccccc1-c1ncc(C(=O)C2=C(O)CCCC2=O)c(=O)n1-c1ccccc1", "note": "[Compound 82]", "Plant response rating, Foxtail, Giant": 80}
{"system": "giant foxtail (Setaria faberii)", "experiment": "Test A pre-/postemergence plant response", "format": "in vivo", "conditions": "Preemergence, 125 g ai/ha; 0 to 100 scale, 0 = no effect, 100 = complete control", "how_it_was_run": "as §1"}
{"molecule": "Cc1ccccc1-c1ncc(C(=O)C2=C(O)CCCC2=O)c(=O)n1-c1ccccc1", "note": "[Compound 82]", "Plant response rating, Foxtail, Giant": 10}
{"system": "giant foxtail (Setaria faberii)", "experiment": "Test A pre-/postemergence plant response", "format": "in vivo", "conditions": "Preemergence, 500 g ai/ha; visual injury, 0 to 100 scale (0 no effect, 100 complete control), approx. ten days", "how_it_was_run": "as §1"}
{"molecule": "Cc1ccccc1-c1ncc(C(=O)C2=C(O)CCCC2=O)c(=O)n1-c1ccccc1", "note": "[Compound 82]", "Plant response rating, Foxtail, Giant": 40}
{"system": "large crabgrass (Digitaria sanguinalis)", "experiment": "Test A pre-/postemergence plant response", "format": "in vivo", "conditions": "Postemergence, 125 g ai/ha; 0 to 100 scale where 0 is no effect and 100 is complete control", "how_it_was_run": "as §1"}
{"molecule": "Cc1ccccc1-c1ncc(C(=O)C2=C(O)CCCC2=O)c(=O)n1-c1ccccc1", "note": "[Compound 82]", "Plant response rating, Crabgrass, Large": 40}
{"system": "large crabgrass (Digitaria sanguinalis)", "experiment": "Test A pre-/postemergence plant response", "format": "in vivo", "conditions": "Postemergence, 500 g ai/ha; 0 to 100 scale, 0 = no effect, 100 = complete control; approx. ten days", "how_it_was_run": "as §1"}
{"molecule": "Cc1ccccc1-c1ncc(C(=O)C2=C(O)CCCC2=O)c(=O)n1-c1ccccc1", "note": "[Compound 82]", "Plant response rating, Crabgrass, Large": 90}
{"system": "large crabgrass (Digitaria sanguinalis)", "experiment": "Test A pre-/postemergence plant response", "format": "in vivo", "conditions": "Preemergence, 500 g ai/ha; visual injury, 0 to 100 scale (0 no effect, 100 complete control), approx. ten days", "how_it_was_run": "as §1"}
{"molecule": "Cc1ccccc1-c1ncc(C(=O)C2=C(O)CCCC2=O)c(=O)n1-c1ccccc1", "note": "[Compound 82]", "Plant response rating, Crabgrass, Large": 100}
{"system": "morningglory (Ipomoea spp.)", "experiment": "Test A pre-/postemergence plant response", "format": "in vivo", "conditions": "Postemergence, 125 g ai/ha; 0 to 100 scale where 0 is no effect and 100 is complete control", "how_it_was_run": "as §1"}
{"molecule": "Cc1ccccc1-c1ncc(C(=O)C2=C(O)CCCC2=O)c(=O)n1-c1ccccc1", "note": "[Compound 82]", "Plant response rating, Morningglory": 90}
{"system": "morningglory (Ipomoea spp.)", "experiment": "Test A pre-/postemergence plant response", "format": "in vivo", "conditions": "Postemergence, 500 g ai/ha; 0 to 100 scale, 0 = no effect, 100 = complete control; approx. ten days", "how_it_was_run": "as §1"}
{"molecule": "Cc1ccccc1-c1ncc(C(=O)C2=C(O)CCCC2=O)c(=O)n1-c1ccccc1", "note": "[Compound 82]", "Plant response rating, Morningglory": 100}
{"system": "morningglory (Ipomoea spp.)", "experiment": "Test A pre-/postemergence plant response", "format": "in vivo", "conditions": "Preemergence, 125 g ai/ha; 0 to 100 scale, 0 = no effect, 100 = complete control", "how_it_was_run": "as §1"}
{"molecule": "Cc1ccccc1-c1ncc(C(=O)C2=C(O)CCCC2=O)c(=O)n1-c1ccccc1", "note": "[Compound 82]", "Plant response rating, Morningglory": 0}
{"system": "morningglory (Ipomoea spp.)", "experiment": "Test A pre-/postemergence plant response", "format": "in vivo", "conditions": "Preemergence, 500 g ai/ha; visual injury, 0 to 100 scale (0 no effect, 100 complete control), approx. ten days", "how_it_was_run": "as §1"}
{"molecule": "Cc1ccccc1-c1ncc(C(=O)C2=C(O)CCCC2=O)c(=O)n1-c1ccccc1", "note": "[Compound 82]", "Plant response rating, Morningglory": 60}
{"system": "pigweed (Amaranthus retroflexus)", "experiment": "Test A pre-/postemergence plant response", "format": "in vivo", "conditions": "Postemergence, 125 g ai/ha; 0 to 100 scale where 0 is no effect and 100 is complete control", "how_it_was_run": "as §1"}
{"molecule": "Cc1ccccc1-c1ncc(C(=O)C2=C(O)CCCC2=O)c(=O)n1-c1ccccc1", "note": "[Compound 82]", "Plant response rating, Pigweed": 90}
{"system": "pigweed (Amaranthus retroflexus)", "experiment": "Test A pre-/postemergence plant response", "format": "in vivo", "conditions": "Postemergence, 500 g ai/ha; 0 to 100 scale, 0 = no effect, 100 = complete control; approx. ten days", "how_it_was_run": "as §1"}
{"molecule": "Cc1ccccc1-c1ncc(C(=O)C2=C(O)CCCC2=O)c(=O)n1-c1ccccc1", "note": "[Compound 82]", "Plant response rating, Pigweed": 100}
{"system": "pigweed (Amaranthus retroflexus)", "experiment": "Test A pre-/postemergence plant response", "format": "in vivo", "conditions": "Preemergence, 125 g ai/ha; 0 to 100 scale, 0 = no effect, 100 = complete control", "how_it_was_run": "as §1"}
{"molecule": "Cc1ccccc1-c1ncc(C(=O)C2=C(O)CCCC2=O)c(=O)n1-c1ccccc1", "note": "[Compound 82]", "Plant response rating, Pigweed": 90}
{"system": "pigweed (Amaranthus retroflexus)", "experiment": "Test A pre-/postemergence plant response", "format": "in vivo", "conditions": "Preemergence, 500 g ai/ha; visual injury, 0 to 100 scale (0 no effect, 100 complete control), approx. ten days", "how_it_was_run": "as §1"}
{"molecule": "Cc1ccccc1-c1ncc(C(=O)C2=C(O)CCCC2=O)c(=O)n1-c1ccccc1", "note": "[Compound 82]", "Plant response rating, Pigweed": 100}
{"system": "velvetleaf (Abutilon theophrasti)", "experiment": "Test A pre-/postemergence plant response", "format": "in vivo", "conditions": "Postemergence, 125 g ai/ha; 0 to 100 scale where 0 is no effect and 100 is complete control", "how_it_was_run": "as §1"}
{"molecule": "Cc1ccccc1-c1ncc(C(=O)C2=C(O)CCCC2=O)c(=O)n1-c1ccccc1", "note": "[Compound 82]", "Plant response rating, Velvetleaf": 100}
{"system": "velvetleaf (Abutilon theophrasti)", "experiment": "Test A pre-/postemergence plant response", "format": "in vivo", "conditions": "Postemergence, 500 g ai/ha; 0 to 100 scale, 0 = no effect, 100 = complete control; approx. ten days", "how_it_was_run": "as §1"}
{"molecule": "Cc1ccccc1-c1ncc(C(=O)C2=C(O)CCCC2=O)c(=O)n1-c1ccccc1", "note": "[Compound 82]", "Plant response rating, Velvetleaf": 100}
